Laboratory results published in patent US4707481A, “Pyridazinones, their preparation and use, and bronchospasmolytic medicaments containing pyridazinones” (BYK Gulden Lomberg Chemische Fabrik GmbH, priority 1983, dated 1987).
Where two headings read alike, the source gives them in different places.

What was measured:
[1] = system: chain of tracheal rings of guinea pigs; experiment: relaxing action on chain of tracheal rings in vitro (bronchospasmolytic action); design: species or system guinea pig; conditions: for EC50: Cavia porcellus, Column A, negative logarithm of EC50 in mol/l, 50% of maximum relaxation by (-)isoprenaline, read-out: -lg[EC50] trachea (converted)
Experimental: The relaxing action of the 6-aryl-3[2H]pyridazinones I has been tested in vitro on a chain of tracheal rings (Tr.) of guinea pigs. […] The quotient of [EC40pot. ]left atrium and [ED50 ]trachea serves as a measure of the organ-selective activity.
The bronchospasmolytic action of the compounds on the chain of tracheal rings of the guinea pig was tested in vitro:
Four parallel chains of tracheal rings, each consisting of 6 individual rings, of guinea pigs(.male. and .female., 430-600 g) in an organ bath [5 ml, Krebs-Henseleit solution with added phentolamine (10^-5 mol/l), 37° C., initial tension of the organs 2 g, gassing with carbogen] develop a stable, spontaneous tonic contraction after about 20 to 30 minutes. […] Over a period of 20 to 30 minutes, a complete dose/action curve of the test substance is thus obtained. The particular relaxation is expressed as a percentage fraction of the maximum relaxation which can be achieved by administration of (-)isoprenaline (10^-6 mol/1). The concentration of the test substance which causes 50% of the maximum relaxation which can be achieved, expressed by the negative logarithm of the EC50 mol/l: -lg[EC50 ]is a measure of the bronchodilator activity.

[2] = system: electrically stimulated left atrium of rats; experiment: positive inotropic action on electrically stimulated left atrium in vitro; design: species or system rat; conditions: for EC40: Rattus norvegicus, Column B, negative logarithm of EC40pot in mol/l, 40% increase in contraction force, read-out: -lg[EC40 pot.] left atrium (converted)
Experimental: The positive inotropic action was tested in vitro on the electrically stimulated left atrium of rats (l.a.).
The positive inotropic action of the compounds was tested in vitro on the electrically stimulated left atrium of rats.
Isometric contractions (HSE force sensor K-30; Watanabe recorder, Linear Corder Mark 5) of isolated, left atria from rats (.male., 250-300 g) in an organ bath (10 ml, Tyrode nutrient solution, 31° C., gassing with carbogen, initial tension of the organs 0.25 g) under electrical stimulation (HSE stimulator, 7 V, 3 ms, 2 Hz) were recorded. […] The particular increase in the contraction force is expressed in % of the starting value before administration of the substance. The concentration of the test substance which potentiates the contraction force of the atrium by 40% compared with the starting value [EC40pot. mol/l], expressed by the negative logarithm of the [EC40pot mol/l]: -lg[EC40pot ] serves as a measure of the cardiotonic activity.

[3] = system: histamine-induced bronchospasm; experiment: inhibition of histamine-induced bronchospasm in anesthetized guinea pigs; assay type: in vivo, guinea pig
Experimental: A method for simultaneously recording pharmacodynamic and toxic effects on internal sensitive receptors, on the respiration and the cardiovascular system of guinea pigs was used [U. Kilian, E. Muller, E. Ch. […] To characterize the bronchospasm induced by histamine (0.09-0.18 μmol /kg i.v.), the maximum flow rate of the respiratory air during inspiration (Vmaxi) and expiration (Vmaxe) and the breath volume (BVi) were measured. A histamine spasm before administration of the substance was compared with several histamine spasms after administration of the substance. The test substances were administered intravenously (i.v.) and/or intrajejunally (i.j.). 5 to 10 animals were used per measurement, and the arithmetic mean was calculated from the results.

[4] = system: acetylcholine-induced bronchospasm; experiment: protective effect against acetylcholine-induced bronchospasm in conscious guinea pigs; assay type: in vivo, guinea pig; conditions: for Doubling of the latency period / Tripling of the latency period: 100 μmol/kg p.o.; for Tripling of the latency period: figure in parentheses
Experimental: The figure in parentheses indicates the number out of 10 animals in which the latency period more than tripled.
The latency period is to be understood to be the time from the start of acetylcholine-atomization until clear signs of asthma appeared.
The time from the start of atomization to the onset of clear respiratory exertion (in certain circumstances, hypoxic convulsion in the lateral position) is measured, and is denoted the latency period.
The test substance is administered orally by gavage (standard dose 100 μmol/kg, volume 1 ml of 4% strength methocel suspension in 0.9% strength sodium chloride solution/kg). […] Prolongation of the latency period to at least twice its length is regarded as a protective effect.

[5] = system: guinea pig hearts isolated and perfused by the Langendorff method; experiment: left-ventricular pressure and heart rate in isolated perfused Langendorff hearts; conditions: for Emax: Cavia porcellus
Description: After the animals have been sacrificed by a blow to the neck and exsanguination through the carotid arteries, the thoracic cavity is opened, and the aorta is exposed and looped up with a thread. A cannula, which is attached by tubing to the apparatus from which the nutrient solution slowly drops, is introduced in the direction of the heart and the heart is, quickly after removal from the thorax, connected to the perfusion apparatus. A balloon probe, connected to a Statham pressure sensor, is advanced through a cut through the left atrium into the left ventricle, and is provided with an initial pressure of 40 mm Hg. […] The nutrient solution flowing freely from the coronary sinus into the right atrium is measured with a flow […]) and, together with the change in the left-ventricular pressure and the heart rate determined from this, is recorded on a Watanabe recorder. The substances are administered in a volume of 0.1 ml of nutrient solution, in the dosage indicated in Tab.

[6] = system: right ventricle of guinea pigs; experiment: heart function dP/dtmax, right ventricle of anesthetized guinea pigs; assay type: in vivo, guinea pig
Experimental: The effect of the substances on the contractility of the heart of guinea pigs is tested on animals (.male., 400 to 1000 g) under urethane anesthesia. The change in pressure in the right ventricle of the heart is measured with a tip catheter introduced through the right jugular vein and the maximum rate of pressure rise (dP/dtmax) is determined from this. The heart rate is derived from the pressure waves. […] The test substances were administered intravenously. 5-7 animals were used for each measurement, and the arithmetic mean was calculated from the results.

[7] = toxicity studies, mouse p.o.; conditions: in vivo, po; Column F; mouse p.o.; 7 days observation; read-out: Approximate LD50
Experimental: The toxicity studies are carried out on female NMRI mice (body weight 23-30 g). The animals (5 animals per dose) receive food and water ad libitum. Various doses of the substances are administered once as a suspension in methocel via a gavage. The period of observation lasts 7 days. The tolerated dose (TD), that is to say the highest dose at which as yet none of the animals die, is determined by observation. The average lethal dose (LD50), that is to say the dose at which 50% of the animals die, is determined from the dose/action curve by means of linear regression.

COc1cc(-c2ccc(=O)[nH]n2)ccc1OCC(C)C [Serial No. 16, 6-(3-methoxy-4-isobutoxyphenyl)-3[2H]pyridazinone]
EC50 [1]: 288 nM | [EC40 pot.] left atrium / [EC50] trachea ([1]; Column C, measure of organ-selective activity): 5.8 | [EC50] theophylline / [EC50] substance ([1]; Column D, trachea): 468 | [EC40 pot.] theophylline / [EC40 pot.] substance ([2]; Column E, left atrium): 251 | EC40 [2]: 1660 nM | inhibition of histamine-induced bronchospasm, TVi ([3]; 20 μmol/kg i.v., 2 min): 153% | inhibition of histamine-induced bronchospasm, Vmaxe ([3]; 20 μmol/kg i.v., 2 min): 145% | inhibition of histamine-induced bronchospasm, Vmaxi ([3]; 20 μmol/kg i.v., 2 min): 154% | inhibition of histamine-induced bronchospasm, TVi ([3]; 20 μmol/kg i.v., 10 min): 66% | inhibition of histamine-induced bronchospasm, Vmaxe ([3]; 20 μmol/kg i.v., 10 min): 63% | inhibition of histamine-induced bronchospasm, Vmaxi ([3]; 20 μmol/kg i.v., 10 min): 73% | inhibition of histamine-induced bronchospasm, TVi ([3]; 20 μmol/kg i.v., 20 min): 46% | inhibition of histamine-induced bronchospasm, Vmaxe ([3]; 20 μmol/kg i.v., 20 min): 60% | inhibition of histamine-induced bronchospasm, Vmaxi ([3]; 20 μmol/kg i.v., 20 min): 48% | inhibition of histamine-induced bronchospasm, TVi ([3]; 20 μmol/kg i.v., 30 min): 28% | inhibition of histamine-induced bronchospasm, Vmaxe ([3]; 20 μmol/kg i.v., 30 min): 33% | inhibition of histamine-induced bronchospasm, Vmaxi ([3]; 20 μmol/kg i.v., 30 min): 34% | inhibition of histamine-induced bronchospasm, TVi ([3]; 20 μmol/kg i.v., 60 min): 13% | inhibition of histamine-induced bronchospasm, Vmaxe ([3]; 20 μmol/kg i.v., 60 min): 16% | inhibition of histamine-induced bronchospasm, Vmaxi ([3]; 20 μmol/kg i.v., 60 min): 15% | inhibition of histamine-induced bronchospasm compared with theophylline ([3]; result in words): significantly more effective than theophylline | Doubling of the latency period ([4]; 30 min): 8 N of 10 animals | Tripling of the latency period ([4]; 30 min): 5 N of 10 animals | protective effect compared with theophylline ([4]; result in words): greater protective effect

Cn1c(=O)c2[nH]cnc2n(C)c1=O [Theophylline, theophylline, reference compound]
EC40 [2]: 417000 nM | inhibition of histamine-induced bronchospasm, TVi ([3]; 20 μmol/kg i.v., 2 min): 45% | inhibition of histamine-induced bronchospasm, Vmaxe ([3]; 20 μmol/kg i.v., 2 min): 51% | inhibition of histamine-induced bronchospasm, Vmaxi ([3]; 20 μmol/kg i.v., 2 min): 49% | inhibition of histamine-induced bronchospasm, TVi ([3]; 20 μmol/kg i.v., 10 min): 5% | inhibition of histamine-induced bronchospasm, Vmaxe ([3]; 20 μmol/kg i.v., 10 min): 10% | inhibition of histamine-induced bronchospasm, Vmaxi ([3]; 20 μmol/kg i.v., 10 min): 11% | inhibition of histamine-induced bronchospasm, TVi ([3]; 20 μmol/kg i.v., 20 min): 5% | inhibition of histamine-induced bronchospasm, Vmaxe ([3]; 20 μmol/kg i.v., 20 min): 9% | inhibition of histamine-induced bronchospasm, Vmaxi ([3]; 20 μmol/kg i.v., 20 min): 8% | inhibition of histamine-induced bronchospasm, TVi ([3]; 20 μmol/kg i.v., 30 min): 10% | inhibition of histamine-induced bronchospasm, Vmaxe ([3]; 20 μmol/kg i.v., 30 min): 13% | inhibition of histamine-induced bronchospasm, Vmaxi ([3]; 20 μmol/kg i.v., 30 min): 8% | inhibition of histamine-induced bronchospasm, TVi ([3]; 60 μmol/kg i.j., 2 min): 7% | inhibition of histamine-induced bronchospasm, Vmaxe ([3]; 60 μmol/kg i.j., 2 min): 8% | inhibition of histamine-induced bronchospasm, Vmaxi ([3]; 60 μmol/kg i.j., 2 min): 6% | inhibition of histamine-induced bronchospasm, TVi ([3]; 60 μmol/kg i.j., 10 min): 35% | inhibition of histamine-induced bronchospasm, Vmaxe ([3]; 60 μmol/kg i.j., 10 min): 33% | inhibition of histamine-induced bronchospasm, Vmaxi ([3]; 60 μmol/kg i.j., 10 min): 42% | inhibition of histamine-induced bronchospasm, TVi ([3]; 60 μmol/kg i.j., 20 min): 41% | inhibition of histamine-induced bronchospasm, Vmaxe ([3]; 60 μmol/kg i.j., 20 min): 41% | inhibition of histamine-induced bronchospasm, Vmaxi ([3]; 60 μmol/kg i.j., 20 min): 46% | inhibition of histamine-induced bronchospasm, TVi ([3]; 60 μmol/kg i.j., 30 min): 37% | inhibition of histamine-induced bronchospasm, Vmaxe ([3]; 60 μmol/kg i.j., 30 min): 40% | inhibition of histamine-induced bronchospasm, Vmaxi ([3]; 60 μmol/kg i.j., 30 min): 45% | inhibition of histamine-induced bronchospasm, TVi ([3]; 60 μmol/kg i.j., 45 min): 33% | inhibition of histamine-induced bronchospasm, Vmaxe ([3]; 60 μmol/kg i.j., 45 min): 33% | inhibition of histamine-induced bronchospasm, Vmaxi ([3]; 60 μmol/kg i.j., 45 min): 39% | inhibition of histamine-induced bronchospasm, TVi ([3]; 60 μmol/kg i.j., 60 min): 37% | inhibition of histamine-induced bronchospasm, Vmaxe ([3]; 60 μmol/kg i.j., 60 min): 32% | inhibition of histamine-induced bronchospasm, Vmaxi ([3]; 60 μmol/kg i.j., 60 min): 39% | inhibition of histamine-induced bronchospasm, TVi ([3]; 60 μmol/kg i.v., 2 min): 78% | inhibition of histamine-induced bronchospasm, Vmaxe ([3]; 60 μmol/kg i.v., 2 min): 79% | inhibition of histamine-induced bronchospasm, Vmaxi ([3]; 60 μmol/kg i.v., 2 min): 95% | inhibition of histamine-induced bronchospasm, TVi ([3]; 60 μmol/kg i.v., 10 min): 27% | inhibition of histamine-induced bronchospasm, Vmaxe ([3]; 60 μmol/kg i.v., 10 min): 27% | inhibition of histamine-induced bronchospasm, Vmaxi ([3]; 60 μmol/kg i.v., 10 min): 38% | inhibition of histamine-induced bronchospasm, TVi ([3]; 60 μmol/kg i.v., 20 min): 16% | inhibition of histamine-induced bronchospasm, Vmaxe ([3]; 60 μmol/kg i.v., 20 min): 15% | inhibition of histamine-induced bronchospasm, Vmaxi ([3]; 60 μmol/kg i.v., 20 min): 19% | inhibition of histamine-induced bronchospasm, TVi ([3]; 60 μmol/kg i.v., 30 min): 16% | inhibition of histamine-induced bronchospasm, Vmaxe ([3]; 60 μmol/kg i.v., 30 min): 15% | inhibition of histamine-induced bronchospasm, Vmaxi ([3]; 60 μmol/kg i.v., 30 min): 18% | inhibition of histamine-induced bronchospasm, TVi ([3]; 60 μmol/kg i.v., 60 min): 3% | inhibition of histamine-induced bronchospasm, Vmaxe ([3]; 60 μmol/kg i.v., 60 min): 8% | inhibition of histamine-induced bronchospasm, Vmaxi ([3]; 60 μmol/kg i.v., 60 min): 7% | Doubling of the latency period ([4]; 30 min): 6 N of 10 animals | Tripling of the latency period ([4]; 30 min): 4 N of 10 animals | Doubling of the latency period ([4]; 45 min after administration): 3 N of 10 animals | Tripling of the latency period ([4]; 45 min after administration): 2 N of 10 animals | Emax ([5]; after 3000 nMol, read-out: Emax left-ventricular pressure): 16% | Emax ([5]; at Emax, 3000 nMol, read-out: Percentage increase in heart rate at Emax): 5% | EC20 left-ventricular pressure ([5]; dose which leads to a 20% increase in left ventricular pressure): is not reached | Percentage change in dP/dtmax ([6]; 10 μmol/kg i.v., 0-10 min (Maximum)): 59% | Percentage change in dP/dtmax ([6]; 10 μmol/kg i.v., 10 min): 12% | Percentage change in dP/dtmax ([6]; 10 μmol/kg i.v., 30 min): 20% | Percentage change in dP/dtmax ([6]; 30 μmol/kg i.v., 0-10 min (Maximum)): 92% | Percentage change in dP/dtmax ([6]; 30 μmol/kg i.v., 10 min): 53% | Percentage change in dP/dtmax ([6]; 30 μmol/kg i.v., 30 min): 67% | Percentage change in dP/dtmax ([6]; 100 μmol/kg i.v., 0-10 min (Maximum)): 147% | Percentage change in dP/dtmax ([6]; 100 μmol/kg i.v., 10 min): 135% | Percentage change in dP/dtmax ([6]; 100 μmol/kg i.v., 30 min): 112%

COc1cc(-c2ccc(=O)[nH]n2)ccc1OC(C)C [compound 1]
EC50 [1]: 1910 nM | EC40 [2]: 22400 nM | LD50 at 168 h [7]: 270 mg/kg
